Each structure is given as a SMILES string. Where only a bound is given, the exact number is not on record here.

Broadly, the IC50 is the concentration that gives 50% inhibition. Read a high IC50 as lower potency.

For one test, the target named is LCK (Homo sapiens (Human), UniProt P06239). Nature of the test: In vitro assay: kinase binding to immobilized ligand, captured kinase measured by qPCR. The source says:
Example B-1: In Vitro Assay
Compounds that bind the kinase active site and directly (sterically) or indirectly (allosterically) prevent kinase binding to an immobilized ligand and reduce the amount of kinase captured on the solid support. Screening “hits” were identified by measuring the amount of kinase captured in test versus control samples by using a quantitative, precise and ultra-sensitive qPCR method that detect the associated DNA label. In a similar manner, dissociation constants (Kd's) for test compound-kinase interactions were calculated by measuring the amount of kinase captured on the solid support as a function of the test compound concentration.

For the next test, the target named is PKMYT1 (Homo sapiens (Human), UniProt Q99640). The description is as above.
PKMYT1, sequence (Q99640 whole entry): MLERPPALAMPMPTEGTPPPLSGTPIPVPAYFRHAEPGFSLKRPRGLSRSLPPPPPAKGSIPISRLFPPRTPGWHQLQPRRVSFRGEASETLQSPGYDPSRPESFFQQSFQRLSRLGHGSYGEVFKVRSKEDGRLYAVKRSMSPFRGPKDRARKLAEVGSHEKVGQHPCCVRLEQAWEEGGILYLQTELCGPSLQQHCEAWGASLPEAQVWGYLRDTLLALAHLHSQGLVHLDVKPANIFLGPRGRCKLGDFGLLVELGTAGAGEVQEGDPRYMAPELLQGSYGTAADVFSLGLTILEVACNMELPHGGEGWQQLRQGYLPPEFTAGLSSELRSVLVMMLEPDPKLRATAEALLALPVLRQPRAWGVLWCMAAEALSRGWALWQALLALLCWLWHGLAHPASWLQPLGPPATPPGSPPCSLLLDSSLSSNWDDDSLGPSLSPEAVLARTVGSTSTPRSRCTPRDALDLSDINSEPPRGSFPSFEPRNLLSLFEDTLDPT

LCK, sequence (P06239 whole entry): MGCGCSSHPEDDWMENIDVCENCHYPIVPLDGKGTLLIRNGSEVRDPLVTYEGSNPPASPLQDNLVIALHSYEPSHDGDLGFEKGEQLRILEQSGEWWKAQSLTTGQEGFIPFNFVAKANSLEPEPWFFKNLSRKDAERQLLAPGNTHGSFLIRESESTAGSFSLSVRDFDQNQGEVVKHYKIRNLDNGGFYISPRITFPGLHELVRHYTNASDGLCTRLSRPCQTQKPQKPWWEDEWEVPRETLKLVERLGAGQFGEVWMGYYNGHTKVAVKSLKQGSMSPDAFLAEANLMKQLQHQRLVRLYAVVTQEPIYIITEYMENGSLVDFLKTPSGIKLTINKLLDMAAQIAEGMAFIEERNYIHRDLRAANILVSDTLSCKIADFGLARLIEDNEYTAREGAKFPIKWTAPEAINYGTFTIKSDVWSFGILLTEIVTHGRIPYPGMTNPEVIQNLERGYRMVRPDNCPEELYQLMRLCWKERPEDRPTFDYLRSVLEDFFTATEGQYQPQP

As for `Cc1c(O)cc(F)c(C)c1-n1c(N)c(C(N)=O)c2cnc(C3CC3)c(C#N)c21` [Compound 663, 2-amino-7-cyano-6-cyclopropyl-1-(3-fluoro-5-hydroxy-2,6-dimethyl-phenyl)pyrrolo[3,2-c]pyridine-3-carboxamide], the IC50 on LCK and on PKMYT1 was below 50 nM each time.

`CCc1c(O)cc(F)c(C)c1-n1c(N)c(C(N)=O)c2cnc(C3CC3)c(C#N)c21` [Compound 673, 2-amino-7-cyano-6-cyclopropyl-1-(2-ethyl-5-fluoro-3-hydroxy-6-methyl-phenyl)pyrrolo[3,2-c]pyridine-3-carboxamide]: the IC50 on LCK and on PKMYT1 was below 50 nM in each case.

Take `Cc1cc2c(C(N)=O)c(N)n(-c3c(C)cc4c(c3C)OCC4)c2nc1C` [Compound 675]: the IC50 is 100 to 1000 nM at LCK and above 1000 nM at PKMYT1.

For the compound `Cc1ncc2c(C(N)=O)c(N)n(-c3c(C)cc4[nH]c(=O)oc4c3C)c2n1` [Compound 680], the IC50 on LCK and at PKMYT1 was above 1000 nM throughout.

Values taken from patent publication US20250388583A1, “COMPOUNDS AND METHOD FOR PKMYT1 INHIBITION” (Engine Biosciences Pte. Ltd., priority 2022, published 2025).
